This note sets out measurements from patent US12208088B2 (Genentech, Inc., priority 2018, dated 2025).

This experiment concerns the target HPK1 (Homo sapiens (Human), UniProt Q92918). The experiment in a line: HPK1 Lantha binding assay ("Lanth"). The note with it: binding assays; Morrison Ki fit. Put shortly: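 Ki values are from Morrison-equation fitting of 665/615 nm TR-FRET signals, taking enzyme level, tracer level and tracer Kd into account. The assay mix held HPK1 (2 nM), Eu-anti-GST antibody (2 nM) and Tracer222 (15 nM). Incubations were two 1 h steps at 23 °C, on 5-fold serial compound dilutions.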

HPK1, sequence (Q92918 1-346 limits assumed): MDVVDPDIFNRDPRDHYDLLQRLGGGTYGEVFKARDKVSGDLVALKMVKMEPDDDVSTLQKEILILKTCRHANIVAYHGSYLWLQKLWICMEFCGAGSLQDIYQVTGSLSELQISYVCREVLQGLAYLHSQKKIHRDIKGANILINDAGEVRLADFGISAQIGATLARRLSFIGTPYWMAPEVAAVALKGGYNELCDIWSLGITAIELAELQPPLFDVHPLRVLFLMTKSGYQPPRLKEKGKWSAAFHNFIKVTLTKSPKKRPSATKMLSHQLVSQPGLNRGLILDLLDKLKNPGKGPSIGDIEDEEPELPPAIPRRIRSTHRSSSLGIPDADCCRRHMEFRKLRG

As usually defined, the Ki is a dissociation constant, usually derived from enzyme kinetics or from competition with a known ligand. Higher therefore signals lower affinity. `Cc1c(-c2ccc(N)c(C(=O)N(C)C)c2F)cnc2c1C1(CCC1)CN2` [Compound 53, 6-Amino-2-fluoro-N,N-dimethyl-3-(4′-methyl-1′,2′-dihydrospiro[cyclobutane-1,3′-pyrrolo[2,3-b]pyridin]-5′-yl)benzamide] yielded an inhibitory constant (Ki) of 28.9 nM.

In turn, `CC(=O)Nc1cc(C#N)cc2c(-c3cnc4c(c3)C3(CC3)CN4)cn(C)c12` [Compound 54, N-(5-Cyano-3-(1′,2′-dihydrospiro[cyclopropane-1,3′-pyrrolo[2,3-b]pyridin]-5′-yl)-1-methyl-1H-indol-7-yl)acetamide] came in with a Ki of 64.4 nM.

`O=C1NCCN1c1cccc(-c2cnc3c(c2Cl)C2(CC2)CN3)c1` [Compound 55, 1-(3-(4′-Chloro-1′,2′-dihydrospiro[cyclopropane-1,3′-pyrrolo[2,3-b]pyridin]-5′-yl)phenyl)imidazolidin-2-one] gave an inhibition constant (Ki) of 84.7 nM.

As to `N#Cc1cc2c(-c3cnc4c(c3)C3(CC3)CN4)c[nH]c2cn1` [Compound 56, 3-(1′,2′-Dihydrospiro[cyclopropane-1,3′-pyrrolo[2,3-b]pyridin]-5′-yl)-1H-pyrrolo[2,3-c]pyridine-5-carbonitrile], affinity was put at a Ki of 35.3 nM.

In turn, `Cn1cccc(-c2cccc(-c3cnc4c(c3Cl)C3(CC3)CN4)c2)c1=O` [Compound 57, 3-(3-(4′-Chloro-1′,2′-dihydrospiro[cyclopropane-1,3′-pyrrolo[2,3-b]pyridin]-5′-yl)phenyl)-1-methylpyridin-2(1H)-one] returned a Ki of 9.06 nM.

Consider `O=C1NCCCC1c1cccc(-c2cnc3c(c2Cl)C2(CC2)CN3)c1` (stereo not shown) [Compound 58, 3-(3-(4′-Chloro-1′,2′-dihydrospiro[cyclopropane-1,3′-pyrrolo[2,3-b]pyridin]-5′-yl)phenyl)piperidin-2-one], for which the Ki was 43.7 nM.

`O=C1NCCCN1c1cccc(-c2cnc3c(c2Cl)C2(CC2)CN3)c1` [Compound 59, 1-(3-(4′-Chloro-1′,2′-dihydrospiro[cyclopropane-1,3′-pyrrolo[2,3-b]pyridin]-5′-yl)phenyl)tetrahydropyrimidin-2(1H)-one] had a Ki of 14.2 nM.

`O=C1CCCCN1c1cccc(-c2cnc3c(c2Cl)C2(CC2)CN3)c1` [Compound 60, 1-(3-(4′-Chloro-1′,2′-dihydrospiro[cyclopropane-1,3′-pyrrolo[2,3-b]pyridin]-5′-yl)phenyl)piperidin-2-one] showed an inhibition constant Ki of 16 nM.

In the case of `Nc1cc(-c2cnc3c(c2Cl)C2(CCC(O)C2)CN3)cc(-c2ncccc2CO)c1` (stereo not shown) [Compound 61, 5′-(3-Amino-5-(3-(hydroxymethyl)pyridin-2-yl)phenyl)-4′-chloro-1′,2′-dihydrospiro[cyclopentane-1,3′-pyrrolo[2,3-b]pyridin]-3-ol], the affinity, expressed as Ki, was 12.8 nM.

`NS(=O)(=O)c1cccc(-c2cnc3c(c2)C2(CC2)CN3)c1` [Compound 62, 3-(1′,2′-Dihydrospiro[cyclopropane-1,3′-pyrrolo[2,3-b]pyridin]-5′-yl)benzenesulfonamide] came in with a Ki of 66.4 nM.

Take `CS(=O)(=O)c1cccc(-c2cnc3c(c2)C2(CC2)CN3)c1` [Compound 63, 5′-(3-(Methylsulfonyl)phenyl)-1′,2′-dihydrospiro[cyclopropane-1,3′-pyrrolo[2,3-b]pyridine]]: the Ki stood at 84.9 nM.

The compound `CC(=O)Nc1ccc(-c2cnc3c(c2)C2(CC2)CN3)cc1C(F)(F)F` [Compound 64, N-(4-(1′,2′-Dihydrospiro[cyclopropane-1,3′-pyrrolo[2,3-b]pyridin]-5′-yl)-2-(trifluoromethyl)phenyl)acetamide] yielded a Ki of 89.1 nM.

Consider `NS(=O)(=O)c1ccc(-c2cnc3c(c2)C2(CC2)CN3)cc1` [Compound 65, 4-(1′,2′-Dihydrospiro[cyclopropane-1,3′-pyrrolo[2,3-b]pyridin]-5′-yl)benzenesulfonamide], for which the affinity, expressed as Ki, was 135 nM.

In turn, `CN(C)C(=O)c1c(N)ccc(-c2cnc3c(c2)C2(CCC2)CN3)c1F` [Compound 66, 6-Amino-3-(1′,2′-dihydrospiro[cyclobutane-1,3′-pyrrolo[2,3-b]pyridin]-5′-yl)-2-fluoro-N,N-dimethylbenzamide] returned an inhibitory constant (Ki) of 53.1 nM.

Consider `O=C1NCCCN1c1cccc(-c2cnc3c(c2)C2(CC2)CN3)c1` [Compound 67, 1-(3-(1′,2′-Dihydrospiro[cyclopropane-1,3′-pyrrolo[2,3-b]pyridin]-5′-yl)phenyl)tetrahydropyrimidin-2(1H)-one], for which affinity was put at a Ki of 27.5 nM.

As to `Cn1cccc(-c2cccc(-c3cnc4c(c3Cl)[C@]3(CC[C@H](O)C3)CN4)c2)c1=O` [Compound 68c, 3-(3-((1R,3S)-4′-chloro-3-hydroxy-1′,2′-dihydrospiro[cyclopentane-1,3′-pyrrolo[2,3-b]pyridin]-5′-yl)phenyl)-1-methylpyridin-2(1H)-one], the affinity, expressed as Ki, was 5.4 nM.

The compound `C[C@@H]1CNC(=O)N1c1cccc(-c2cnc3c(c2Cl)C2(CC2)CN3)c1` [Compound 69a, (R)-1-(3-(4′-Chloro-1′,2′-dihydrospiro[cyclopropane-1,3′-pyrrolo[2,3-b]pyridin]-5′-yl)phenyl)-5-methylimidazolidin-2-one] showed a Ki of 35.6 nM.

In turn, `C[C@H]1CNC(=O)N1c1cccc(-c2cnc3c(c2Cl)C2(CC2)CN3)c1` [Compound 69b, (S)-1-(3-(4′-Chloro-1′,2′-dihydrospiro[cyclopropane-1,3′-pyrrolo[2,3-b]pyridin]-5′-yl)phenyl)-5-methylimidazolidin-2-one] yielded an inhibition constant (Ki) of 16 nM.

Regarding `O=C1NCCCN1c1cccc(-c2cnc3c(c2)C2(CC2)CN3)n1` [Compound 70, 1-(6-(1′,2′-Dihydrospiro[cyclopropane-1,3′-pyrrolo[2,3-b]pyridin]-5′-yl)pyridin-2-yl)tetrahydropyrimidin-2(1H)-one], the Ki came to 102 nM.

On to `O=C1NCCN1c1cccc(-c2cnc3c(c2)C2(CC2)CN3)n1` [Compound 71, 1-(6-(1′,2′-Dihydrospiro[cyclopropane-1,3′-pyrrolo[2,3-b]pyridin]-5′-yl)pyridin-2-yl)imidazolidin-2-one], for which the Ki turned out to be 115 nM.

The compound `c1cc(-c2cnc3c(c2)C2(CC2)CN3)cc(-c2nnn3c2CNCC3)c1` [Compound 72, 5′-(3-(4,5,6,7-Tetrahydro-[1,2,3]triazolo[1,5-a]pyrazin-3-yl)phenyl)-1′,2′-dihydrospiro[cyclopropane-1,3′-pyrrolo[2,3-b]pyridine]] returned an inhibitory constant (Ki) of 279 nM.

In turn, `O=C1NCCC1c1cccc(-c2cnc3c(c2Cl)C2(CC2)CN3)c1` (stereo not shown) [Compound 73] showed a Ki of 26.1 nM.

In turn, `N#Cc1cc2c(-c3cnc4c(c3)C3(CC3)CN4)c[nH]c2cc1F` [Compound 74] returned a Ki of 31 nM.

Turning to `CN(C)C(=O)c1c(N)ccc(-c2cnc3c(c2Cl)C2(CCC(N(C)CC(N)=O)C2)CN3)c1F` (stereo not shown) [Compound 75, 6-Amino-3-(3-((2-amino-2-oxoethyl)(methyl)amino)-4′-chloro-1′,2′-dihydrospiro[cyclopentane-1,3′-pyrrolo[2,3-b]pyridin]-5′-yl)-2-fluoro-N,N-dimethylbenzamide], the Ki is 251 nM.

Consider `CN(C)C(=O)c1c(N)ccc(-c2cnc3c(c2Cl)C2(CCC(NCC(N)=O)C2)CN3)c1F` (stereo not shown) [Compound 76, 6-Amino-3-(3-((2-amino-2-oxoethyl)amino)-4′-chloro-1′,2′-dihydrospiro[cyclopentane-1,3′-pyrrolo[2,3-b]pyridin]-5′-yl)-2-fluoro-N,N-dimethylbenzamide], for which the inhibition constant Ki is 490 nM.
